Experimental data published in PubChem BioAssay AID330 (DTP/NCI, 2004).
“And” between values parts separate entries of the source, which are not always exact repeats. Equal entries are not always repeated. Inconclusive results and toxic doses are left out. How the source made its calls: active means survival T/C of 150% or more; inactive means T/C below 125% in these data.

Test system: P388 leukemia ip, CD2F1 mice, survival T/C
Assay: NCI In Vivo Anticancer Drug Screen. Data for tumor model P388 Leukemia (intraperitoneal) in CD2F1 (CDF1) mice
Conditions: endpoint: median survival time, higher = longer survival
Method in brief: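 Mice carrying the transplanted tumor received test compound or vehicle. Survival was recorded in each group, and the value is the treated-group measurement divided by that of the vehicle-treated control group.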

[1] = dose: 100.0 mg/kg/injection, schedule: Q04DX002 (ip), vehicle: saline with Tween-80
[2] = dose: 200.0 mg/kg/injection, schedule: Q04DX002 (ip), vehicle: saline with Tween-80
[3] = dose: 50.0 mg/kg/injection, schedule: Q01DX005 (ip), vehicle: Klucel (hydroxypropylcellulose) (HPC)
[4] = dose: 100.0 mg/kg/injection, schedule: Q01DX005 (ip), vehicle: Klucel (hydroxypropylcellulose) (HPC)
[5] = dose: 200.0 mg/kg/injection, schedule: Q01DX005 (ip), vehicle: Klucel (hydroxypropylcellulose) (HPC)

Measured: T/C

N#CC(c1ccccc1)c1nccc2ccccc12 (stereo not given)
inactive: [1] 99 % of control | [2] 100 % of control

COC(=O)C(C)=O
inactive: dose: 100.0 mg/kg/injection, schedule: Q04DX003 (ip), vehicle: saline 100 % of control | dose: 200.0 mg/kg/injection, schedule: Q04DX003 (ip), vehicle: saline 90 % of control | dose: 400.0 mg/kg/injection, schedule: Q04DX003 (ip), vehicle: saline 90 % of control

CCOc1cccc2c1C(O)(C#Cc1ccccc1)c1cccc(OCC)c1C2(O)C#Cc1ccccc1 (stereo not given)
inactive: [1] 87 % of control | [2] 87 % of control | dose: 400.0 mg/kg/injection, schedule: Q04DX002 (ip), vehicle: saline with Tween-80 91 % of control

NC(N)=NCC[C@H](N)C(=O)O
inactive: dose: 50.0 mg/kg/injection, schedule: Q01DX005 (ip), vehicle: saline 104 % of control | dose: 100.0 mg/kg/injection, schedule: Q01DX005 (ip), vehicle: saline 104 % of control | dose: 200.0 mg/kg/injection, schedule: Q01DX005 (ip), vehicle: saline 97 % of control

CS(=O)(=O)c1nc(N)c2nnn(C3OC(CO)C(O)C3O)c2n1 (stereo not given)
inactive: dose: 12.5 mg/kg/injection, schedule: Q01DX001 (ip), vehicle: saline 109 % of control | dose: 25.0 mg/kg/injection, schedule: Q01DX001 (ip), vehicle: saline 100 % of control | dose: 50.0 mg/kg/injection, schedule: Q01DX001 (ip), vehicle: saline 118 % of control | dose: 100.0 mg/kg/injection, schedule: Q01DX001 (ip), vehicle: saline 109 % of control

Cc1nn2c(=O)c3c([N+](=O)[O-])c(C)nn3c(=O)c2c1[N+](=O)[O-]
inactive: [3] 105 % of control | [4] 97 % of control | [5] 100 % of control

O=C(NO)c1cccc2ccccc12
inactive: [3] 106 % of control | [4] 106 % of control | [5] 113 % of control

O=c1ccn2c(n1)SC(c1ccccc1)C2 (stereo not given)
inactive: dose: 50.0 mg/kg/injection, schedule: Q01DX009 (ip), vehicle: saline with Tween-80 100 % of control | dose: 100.0 mg/kg/injection, schedule: Q01DX009 (ip), vehicle: saline with Tween-80 98 % of control | dose: 200.0 mg/kg/injection, schedule: Q01DX009 (ip), vehicle: saline with Tween-80 100 % of control

NC(=O)c1cc2c(oc1=O)-c1ccccc1OC2
inactive: dose: 60.0 mg/kg/injection, schedule: Q01DX005 (ip), vehicle: saline with Tween-80 98 % of control | dose: 120.0 mg/kg/injection, schedule: Q01DX005 (ip), vehicle: saline with Tween-80 95 % of control | dose: 240.0 mg/kg/injection, schedule: Q01DX005 (ip), vehicle: saline with Tween-80 95 % of control

CN1CC[C@]23c4c5ccc(O)c4OC2C(O)C=C[C@H]3[C@H]1C5 (stereo not given in full)
inactive: dose: 100.0 mg/kg/injection, schedule: Q01DX001 (ip), vehicle: Klucel (hydroxypropylcellulose) (HPC) 103 % of control | dose: 200.0 mg/kg/injection, schedule: Q01DX001 (ip), vehicle: Klucel (hydroxypropylcellulose) (HPC) 100 % of control | dose: 400.0 mg/kg/injection, schedule: Q01DX001 (ip), vehicle: Klucel (hydroxypropylcellulose) (HPC) 110 % of control

O=C1c2ccccc2C(=O)c2c1cccc2N1CCOCC1
inactive: dose: 50.0 mg/kg/injection, schedule: Q01DX009 (ip), vehicle: Klucel (hydroxypropylcellulose) (HPC) 99 % of control and 100 % of control | dose: 100.0 mg/kg/injection, schedule: Q01DX009 (ip), vehicle: Klucel (hydroxypropylcellulose) (HPC) 101 % of control | dose: 200.0 mg/kg/injection, schedule: Q01DX009 (ip), vehicle: Klucel (hydroxypropylcellulose) (HPC) 103 % of control and 94 % of control

CNC(=O)Nc1nnnc2ccccc12
inactive: dose: 25.0 mg/kg/injection, schedule: Q04DX003 (ip), vehicle: saline with Tween-80 90 % of control | dose: 50.0 mg/kg/injection, schedule: Q04DX003 (ip), vehicle: saline with Tween-80 100 % of control | dose: 100.0 mg/kg/injection, schedule: Q04DX003 (ip), vehicle: saline with Tween-80 100 % of control

CS(=O)(=O)C(CCC(=O)c1cccs1)C(=O)c1ccccc1 (stereo not given)
inactive: [3] 89 % of control | [4] 91 % of control | [5] 89 % of control

C[N+](C)(C)CCC(=O)c1ccc(Cl)cc1
inactive: dose: 3.13 mg/kg/injection, schedule: Q01DX009 (ip), vehicle: saline 109 % of control | dose: 6.25 mg/kg/injection, schedule: Q01DX009 (ip), vehicle: saline 96 % of control | dose: 12.5 mg/kg/injection, schedule: Q01DX009 (ip), vehicle: saline 103 % of control

O=C1SC/C(=N\N=C2/CSC(=O)N2Cc2ccccc2)N1Cc1ccccc1
inactive: [3] 87 % of control | [4] 93 % of control | [5] 88 % of control
